What follows are molecules tested against T1, Zcchc11 enzyme (Homo sapiens, UniProt Q5TAX3) (assay: TUTase assay (Zcchc11 assay, Lin28a-dependent polyuridylation of pre-let-7)). Conditions: Lin28a-dependent Zcchc11 (Z11) TUTase assay; read-out: Potency Lin28a-dep Z11 IC50.
T1 construct: made in house; host or cells: HEK293 cells (Zcchc11); E. coli Rosetta II (LIN28A)
T1 sequence (Q5TAX3 212-1420): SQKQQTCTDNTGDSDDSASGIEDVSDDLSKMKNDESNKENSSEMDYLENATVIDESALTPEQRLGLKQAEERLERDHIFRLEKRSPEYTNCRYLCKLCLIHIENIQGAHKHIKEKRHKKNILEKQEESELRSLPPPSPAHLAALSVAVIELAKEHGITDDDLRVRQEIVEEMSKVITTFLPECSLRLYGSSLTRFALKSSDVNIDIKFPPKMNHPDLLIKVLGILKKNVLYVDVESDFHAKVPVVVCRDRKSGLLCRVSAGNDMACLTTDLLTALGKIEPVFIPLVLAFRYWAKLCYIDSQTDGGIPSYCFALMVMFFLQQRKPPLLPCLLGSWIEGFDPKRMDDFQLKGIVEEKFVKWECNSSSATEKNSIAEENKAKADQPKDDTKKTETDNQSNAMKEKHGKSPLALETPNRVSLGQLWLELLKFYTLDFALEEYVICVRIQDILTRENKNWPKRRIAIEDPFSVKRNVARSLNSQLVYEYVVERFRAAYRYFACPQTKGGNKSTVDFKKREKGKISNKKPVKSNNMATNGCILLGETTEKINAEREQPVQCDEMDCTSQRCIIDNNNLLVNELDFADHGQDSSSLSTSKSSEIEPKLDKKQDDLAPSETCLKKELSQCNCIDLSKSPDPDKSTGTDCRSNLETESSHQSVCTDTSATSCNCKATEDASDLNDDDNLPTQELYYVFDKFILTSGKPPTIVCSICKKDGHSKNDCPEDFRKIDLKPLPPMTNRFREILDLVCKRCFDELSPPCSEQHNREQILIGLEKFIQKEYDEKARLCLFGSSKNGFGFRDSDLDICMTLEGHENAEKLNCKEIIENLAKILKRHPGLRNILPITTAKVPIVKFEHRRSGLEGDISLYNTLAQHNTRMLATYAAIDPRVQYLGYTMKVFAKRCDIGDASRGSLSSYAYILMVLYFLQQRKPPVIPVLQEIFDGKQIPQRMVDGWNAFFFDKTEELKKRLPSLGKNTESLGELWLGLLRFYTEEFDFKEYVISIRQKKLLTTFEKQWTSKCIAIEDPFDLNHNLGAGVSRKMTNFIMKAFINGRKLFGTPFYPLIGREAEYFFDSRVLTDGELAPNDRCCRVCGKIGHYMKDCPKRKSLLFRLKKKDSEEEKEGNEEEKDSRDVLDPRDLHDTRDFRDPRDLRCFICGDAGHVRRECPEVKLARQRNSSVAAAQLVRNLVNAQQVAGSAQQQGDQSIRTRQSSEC
Type: biochemical
Procedure, shortened: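 Human Zcchc11 residues 212-1420 (HEK293-expressed, MBP tag cleaved, C-terminal FLAG) at 0.2 nM, with 10 nM full-length human LIN28A and 2 nM 5′-fluorescein pre-let-7, preincubated with compound 30 min at room temperature. Reaction started with 5 uM UTP plus 4 nM 3′-rhodamine A20 quench probe; fluorescein loss read kinetically, IC50 from initial rates.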

Row | IC50 | Compound
1 | ≤ 1 µM | COc1ccc(Cl)c(OC[C@H]2CC(C)(O)CN2c2cc3c(cc2Cl)c(=O)c(C(=O)O)cn3-c2ccc(N3CC(N(C)C)C3)nc2)n1 (stereo partly drawn) [Example 643, 6-chloro-7-((2R)-2-(((3-chloro-6-methoxypyridin-2-yl)oxy)methyl)-4-hydroxy-4-methylpyrrolidin-1-yl)-1-(6-(3-(dimethylamino)azetidin-1-yl)pyridin-3-yl)-4-oxo-1,4-dihydroquinoline-3-carboxylic acid]
2 | ≤ 1 µM | COc1ccc(Cl)c(OC[C@H]2CCCN2c2cc3c(cc2Cl)c(=O)c(C(=O)O)cn3-c2ccnc(N)c2)n1 [Example 644, (R)-1-(2-aminopyridin-4-yl)-6-chloro-7-(2-(((3-chloro-6-methoxypyridin-2-yl)oxy)methyl)pyrrolidin-1-yl)-4-oxo-1,4-dihydroquinoline-3-carboxylic acid]
3 | ≤ 1 µM | CN(C)C1CN(c2ccc(-n3cc(C(=O)O)c(=O)c4cc(Cl)c(N5CCC[C@@H]5COc5nc6c(ccn6C)cc5Cl)cc43)cn2)C1 [Example 645, (R)-6-chloro-7-(2-(((5-chloro-1-methyl-1H-pyrrolo[2,3-b]pyridin-6-yl)oxy)methyl)pyrrolidin-1-yl)-1-(6-(3-(dimethylamino)azetidin-1-yl)pyridin-3-yl)-4-oxo-1,4-dihydroquinoline-3-carboxylic acid]
4 | ≤ 1 µM | COc1ccc(Cl)c(OC[C@H]2CCCN2c2cc3c(cc2F)c(=O)c(C(=O)O)cn3-c2cnnc(N)c2)n1 [Example 646, (R)-1-(6-aminopyridazin-4-yl)-7-(2-(((3-chloro-6-methoxypyridin-2-yl)oxy)methyl)pyrrolidin-1-yl)-6-fluoro-4-oxo-1,4-dihydroquinoline-3-carboxylic acid]
5 | ≤ 1 µM | Nc1ccc(-n2cc(C(=O)O)c(=O)c3cc(Cl)c(N4CCC[C@@H]4COc4nc(OC5CC5)ccc4Cl)cc32)cn1 [Example 647, (R)-1-(6-aminopyridin-3-yl)-6-chloro-7-(2-(((3-chloro-6-cyclopropoxy-pyridin-2-yl)oxy)methyl)pyrrolidin-1-yl)-4-oxo-1,4-dihydroquinoline-3-carboxylic acid]
6 | ≤ 1 µM | COc1ccc(Cl)c(OC[C@H]2CC(C)(C)CN2c2cc3c(cc2Cl)c(=O)c(C(=O)O)cn3-c2ccc(N3CC(N(C)C)C3)nc2)n1 [Example 648, (R)-6-chloro-7-(2-(((3-chloro-6-methoxypyridin-2-yl)oxy)methyl)-4,4-dimethylpyrrolidin-1-yl)-1-(6-(3-(dimethylamino)azetidin-1-yl)pyridin-3-yl)-4-oxo-1,4-dihydroquinoline-3-carboxylic acid]
7 | ≤ 1 µM | COc1ccc(Cl)c(OC[C@H]2CC(C)(C)CN2c2cc3c(cc2Cl)c(=O)c(C(=O)O)cn3-c2ccc(N)nc2)n1 [Example 649, (R)-1-(6-aminopyridin-3-yl)-6-chloro-7-(2-(((3-chloro-6-methoxypyridin-2-yl)oxy)methyl)-4,4-dimethylpyrrolidin-1-yl)-4-oxo-1,4-dihydroquinoline-3-carboxylic acid]
8 | ≤ 1 µM | COc1ccc(Cl)c(OC[C@H]2CC(C)(C)CN2c2cc3c(cc2Cl)c(=O)c(C(=O)O)cn3-c2ccnc(N)c2)n1 [Example 650, (R)-1-(2-aminopyridin-4-yl)-6-chloro-7-(2-(((3-chloro-6-methoxypyridin-2-yl)oxy)methyl)-4,4-dimethylpyrrolidin-1-yl)-4-oxo-1,4-dihydroquinoline-3-carboxylic acid]
9 | ≤ 1 µM | COc1cnc(OC[C@H]2CC3CC3N2c2cc3c(cc2Cl)c(=O)c(C(=O)O)cn3-c2ccc(N)nc2)c(Cl)c1 (stereo partly drawn) [Example 651, 1-(6-aminopyridin-3-yl)-6-chloro-7-((3R)-3-(((3-chloro-5-methoxypyridin-2-yl)oxy)methyl)-2-azabicyclo[3.1.0]hexan-2-yl)-4-oxo-1,4-dihydroquinoline-3-carboxylic acid]
10 | ≤ 1 µM | CN(C)C1CN(c2ccc(-n3cc(C(=O)O)c(=O)c4cc(Cl)c(N5CCC[C@@H]5COc5nc6nc[nH]c6cc5Cl)cc43)cn2)C1 [Example 652, (R)-6-chloro-7-(2-(((6-chloro-3H-imidazo[4,5-b]pyridin-5-yl)oxy)methyl)pyrrolidin-1-yl)-1-(6-(3-(dimethylamino)azetidin-1-yl)pyridin-3-yl)-4-oxo-1,4-dihydroquinoline-3-carboxylic acid]
11 | ≤ 1 µM | COc1cnc(OC[C@H]2CC3CC3N2c2cc3c(cc2Cl)c(=O)c(C(=O)O)cn3-c2ccnc(N)c2)c(Cl)c1 (stereo partly drawn) [Example 653, 1-(2-aminopyridin-4-yl)-6-chloro-7-((3R)-3-(((3-chloro-5-methoxypyridin-2-yl)oxy)methyl)-2-azabicyclo[3.1.0]hexan-2-yl)-4-oxo-1,4-dihydroquinoline-3-carboxylic acid]
12 | ≤ 1 µM | COc1ccc(Cl)c(OC[C@H]2CC3CC3N2c2cc3c(cc2Cl)c(=O)c(C(=O)O)cn3-c2ccc(N3CC(N(C)C)C3)nc2)n1 (stereo partly drawn) [Example 654, 6-chloro-7-((3R)-3-(((3-chloro-6-methoxypyridin-2-yl)oxy)methyl)-2-azabicyclo[3.1.0]hexan-2-yl)-1-(6-(3-(dimethylamino)azetidin-1-yl)pyridin-3-yl)-4-oxo-1,4-dihydroquinoline-3-carboxylic acid]
13 | ≤ 1 µM | CN(C)c1ccc(Cl)c(OC[C@H]2CCCN2c2cc3c(cc2Cl)c(=O)c(C(=O)O)cn3-c2ccnc(N)c2)n1 [Example 655, (R)-1-(2-aminopyridin-4-yl)-6-chloro-7-(2-(((3-chloro-6-(dimethylamino)pyridin-2-yl)oxy)methyl)pyrrolidin-1-yl)-4-oxo-1,4-dihydroquinoline-3-carboxylic acid]
14 | ≤ 1 µM | COCCN(C)C1CN(c2ccc(-n3cc(C(=O)O)c(=O)c4cc(Cl)c(N5CCC[C@@H]5COc5nc(N(C)C)ccc5Cl)cc43)cn2)C1 [Example 657, (R)-6-chloro-7-(2-(((3-chloro-6-(dimethylamino)pyridin-2-yl)oxy)methyl)pyrrolidin-1-yl)-1-(6-(3-((2-methoxyethyl) (methyl)amino)azetidin-1-yl)pyridin-3-yl)-4-oxo-1,4-dihydroquinoline-3-carboxylic acid]
15 | ≤ 1 µM | COc1ccc(Cl)c(OC[C@H]2CCCN2c2cc3c(cc2C(F)(F)F)c(=O)c(C(=O)O)cn3-c2ccc(N3CC(N(C)C)C3)nc2)n1 [Example 659, (R)-7-(2-(((3-chloro-6-methoxypyridin-2-yl)oxy)methyl)pyrrolidin-1-yl)-1-(6-(3-(dimethylamino)azetidin-1-yl)pyridin-3-yl)-4-oxo-6-(trifluoromethyl)-1,4-dihydroquinoline-3-carboxylic acid]
16 | ≤ 1 µM | COc1ccc(Cl)c(OC[C@H]2C[C@H]3C[C@H]3N2c2cc3c(cc2Cl)c(=O)c(C(=O)O)cn3-c2ccc(N3CC(N(C)C)C3)nc2)n1 [Example 660, 6-chloro-7-((1R,3R,5R)-3-(((3-chloro-6-methoxypyridin-2-yl)oxy)methyl)-2-azabicyclo[3.1.0]hexan-2-yl)-1-(6-(3-(dimethylamino)azetidin-1-yl)pyridin-3-yl)-4-oxo-1,4-dihydroquinoline-3-carboxylic acid]
17 | ≤ 1 µM | COc1ccc(Cl)c(OC[C@H]2C[C@@H]3C[C@@H]3N2c2cc3c(cc2Cl)c(=O)c(C(=O)O)cn3-c2ccc(N3CC(N(C)C)C3)nc2)n1 [Example 661, 6-chloro-7-((1S,3R,5S)-3-(((3-chloro-6-methoxypyridin-2-yl)oxy)methyl)-2-azabicyclo[3.1.0]hexan-2-yl)-1-(6-(3-(dimethylamino)azetidin-1-yl)pyridin-3-yl)-4-oxo-1,4-dihydroquinoline-3-carboxylic acid]

Row | Compound | IC50
18 | CN(C)C1CN(c2ccc(-n3cc(C(=O)O)c(=O)c4cc(Cl)c(N5CCC[C@@H]5COc5nc(OC(C)(C)C)ccc5Cl)cc43)cn2)C1 [Example 658, (R)-7-(2-(((6-(tert-butoxy)-3-chloropyridin-2-yl)oxy)methyl)pyrrolidin-1-yl)-6-chloro-1-(6-(3-(dimethylamino)azetidin-1-yl)pyridin-3-yl)-4-oxo-1,4-dihydroquinoline-3-carboxylic acid] | ≤ 1 µM
